# Measured values as given in PubChem BioAssay AID2060338 (Molecular Pharmacology Branch, DTP, NCI, 2025).
# “And” between values parts separate entries of the source, which are not always exact repeats. Identical values can stand only once.
# Test system: 556581-035-R-J1-PDC spheroids with HUVEC/MSC, viability
# Experiment: Anticancer human tumor 556581-035-R-J1-PDC patient-derived ovarian carcinoma cell line growth inhibition [IpAb]
# Conditions: for viability, T/C: stronger effect = lower value
# Procedure, shortened: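 Spheroids of 60% malignant cells, 25% HUVEC and 15% MSC were exposed to targeted agents combined with ipatasertib or abemaciclib. Doses started at or near clinical Cmax (10 microM when unknown) and fell in half-log steps.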
# [1] = curve of first compound, second compound 0.1 µM
# [2] = curve of first compound, second compound 0.316 µM
# [3] = curve of first compound, second compound 1 µM
# [4] = second compound 0.1 µM, first compound 0.00949 µM
# [5] = second compound 0.1 µM, first compound 0.03 µM
# [6] = second compound 0.1 µM, first compound 0.0949 µM
# [7] = second compound 0.1 µM, first compound 0.3 µM
# [8] = second compound 0.316 µM, first compound 0.00949 µM
# [9] = second compound 0.316 µM, first compound 0.03 µM
# [10] = second compound 0.316 µM, first compound 0.0949 µM
# [11] = second compound 0.316 µM, first compound 0.3 µM
# [12] = second compound 1 µM, first compound 0.00949 µM
# [13] = second compound 1 µM, first compound 0.03 µM
# [14] = second compound 1 µM, first compound 0.0949 µM
# [15] = second compound 1 µM, first compound 0.3 µM
# 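Note: spheroids exposed to compounds for 7 days before readout.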
compound,measurement,setting,value
CC(=O)c1c(C)c2cnc(Nc3ccc(N4CCNCC4)cn3)nc2n(C2CCCC2)c1=O + CC(C)NCC(C(=O)N1CCN(c2ncnc3c2C(C)CC3O)CC1)c1ccc(Cl)cc1,IC50,[1],> 300 nM
same,IC50,[2],> 300 nM
same,IC50,[3],> 300 nM
same,IC50,"curve of first compound, second compound 3.16 µM",> 300 nM
same,IC50,"curve of first compound, second compound 10 µM",< 0.949 nM
same,"viability, T/C","second compound 0.1 µM, first compound 0.000949 µM",98.2%
same,"viability, T/C","second compound 0.1 µM, first compound 0.003 µM",115%
same,"viability, T/C",[4],95.5%
same,"viability, T/C",[5],96%
same,"viability, T/C",[6],99%
same,"viability, T/C",[7],87.2%
same,"viability, T/C","second compound 0.316 µM, first compound 0.000949 µM",77.8%
same,"viability, T/C","second compound 0.316 µM, first compound 0.003 µM",90.4%
same,"viability, T/C",[8],85.9%
same,"viability, T/C",[9],76%
same,"viability, T/C",[10],85.3%
same,"viability, T/C",[11],82.4%
same,"viability, T/C","second compound 1 µM, first compound 0.000949 µM",59.9%
same,"viability, T/C","second compound 1 µM, first compound 0.003 µM",65.7%
same,"viability, T/C",[12],68.1%
same,"viability, T/C",[13],56.4%
same,"viability, T/C",[14],65.3%
same,"viability, T/C",[15],63.5%
same,"viability, T/C","second compound 3.16 µM, first compound 0.000949 µM",57.8%
same,"viability, T/C","second compound 3.16 µM, first compound 0.003 µM",61.7%
same,"viability, T/C","second compound 3.16 µM, first compound 0.00949 µM",49.9%
same,"viability, T/C","second compound 3.16 µM, first compound 0.03 µM",55.4%
same,"viability, T/C","second compound 3.16 µM, first compound 0.0949 µM",58.1%
same,"viability, T/C","second compound 3.16 µM, first compound 0.3 µM",58%
same,"viability, T/C","second compound 10 µM, first compound 0.000949 µM",47.9%
same,"viability, T/C","second compound 10 µM, first compound 0.003 µM",47.4%
same,"viability, T/C","second compound 10 µM, first compound 0.00949 µM",48.6%
same,"viability, T/C","second compound 10 µM, first compound 0.03 µM",49.6%
same,"viability, T/C","second compound 10 µM, first compound 0.0949 µM",45.8%
same,"viability, T/C","second compound 10 µM, first compound 0.3 µM",48.4%
CC(C)(C)c1cnc(CSc2cnc(NC(=O)C3CCNCC3)s2)o1 + CCN1CCN(Cc2ccc(Nc3ncc(F)c(-c4cc(F)c5nc(C)n(C(C)C)c5c4)n3)nc2)CC1,IC50,"curve of first compound, second compound 0.01 µM",154 nM
same,IC50,"curve of first compound, second compound 0.0316 µM",114 nM
same,IC50,[1],67.8 nM
same,IC50,[2],45.4 nM
same,IC50,[3],13.1 nM
same,"viability, T/C","second compound 0.01 µM, first compound 0.00949 µM",103%
same,"viability, T/C","second compound 0.01 µM, first compound 0.03 µM",122%
same,"viability, T/C","second compound 0.01 µM, first compound 0.0949 µM",84.5%
same,"viability, T/C","second compound 0.01 µM, first compound 0.3 µM",2.06%
same,"viability, T/C","second compound 0.01 µM, first compound 0.949 µM",2.48%
same,"viability, T/C","second compound 0.01 µM, first compound 3 µM",2.1%
same,"viability, T/C","second compound 0.0316 µM, first compound 0.00949 µM",115%
same,"viability, T/C","second compound 0.0316 µM, first compound 0.03 µM",103%
same,"viability, T/C","second compound 0.0316 µM, first compound 0.0949 µM",59.2%
same,"viability, T/C","second compound 0.0316 µM, first compound 0.3 µM",5.51%
same,"viability, T/C","second compound 0.0316 µM, first compound 0.949 µM",1.33%
same,"viability, T/C","second compound 0.0316 µM, first compound 3 µM",0.97%
same,"viability, T/C",[4],93.8%
same,"viability, T/C",[5],93.9%
same,"viability, T/C",[6],31.8%
same,"viability, T/C",[7],1.38%
same,"viability, T/C","second compound 0.1 µM, first compound 0.949 µM",3.13%
same,"viability, T/C","second compound 0.1 µM, first compound 3 µM",1.36%
same,"viability, T/C",[8],83.5%
same,"viability, T/C",[9],73.7%
same,"viability, T/C",[10],7.97%
same,"viability, T/C",[11],1.31%
same,"viability, T/C","second compound 0.316 µM, first compound 0.949 µM",2.8%
same,"viability, T/C","second compound 0.316 µM, first compound 3 µM",3.38%
same,"viability, T/C",[12],55.7%
same,"viability, T/C",[13],35.4%
same,"viability, T/C",[14],3.81%
same,"viability, T/C",[15],1.87%
same,"viability, T/C","second compound 1 µM, first compound 0.949 µM",0.65%
same,"viability, T/C","second compound 1 µM, first compound 3 µM",1.32%
CC(C)n1nc(-c2ccc3oc(N)nc3c2)c2c(N)ncnc21,"viability, T/C",compound 0.000316 µM,99.2% and 88.1%
same,"viability, T/C",compound 0.001 µM,62.2% and 89.2%
same,"viability, T/C",compound 0.00316 µM,70.7% and 66.5%
same,"viability, T/C",compound 0.01 µM,45.7% and 44.2%
same,"viability, T/C",compound 0.0316 µM,34.7% and 34%
same,"viability, T/C",compound 0.1 µM,25.1% and 23.4%
same,IC50,curve of compound,7.84 nM and 7.75 nM
